These results are taken from patent US9193744B2, “Heterocyclic nuclear hormone receptor modulators” (AbbVie Inc., priority 2012, dated 2015).

Assay [1] has as its target T1, Glucocorticoid Receptor (GR) (Homo sapiens, UniProt P04150).
T1 construct: purchased Invitrogen P2893
T1 sequence (P04150 1-777): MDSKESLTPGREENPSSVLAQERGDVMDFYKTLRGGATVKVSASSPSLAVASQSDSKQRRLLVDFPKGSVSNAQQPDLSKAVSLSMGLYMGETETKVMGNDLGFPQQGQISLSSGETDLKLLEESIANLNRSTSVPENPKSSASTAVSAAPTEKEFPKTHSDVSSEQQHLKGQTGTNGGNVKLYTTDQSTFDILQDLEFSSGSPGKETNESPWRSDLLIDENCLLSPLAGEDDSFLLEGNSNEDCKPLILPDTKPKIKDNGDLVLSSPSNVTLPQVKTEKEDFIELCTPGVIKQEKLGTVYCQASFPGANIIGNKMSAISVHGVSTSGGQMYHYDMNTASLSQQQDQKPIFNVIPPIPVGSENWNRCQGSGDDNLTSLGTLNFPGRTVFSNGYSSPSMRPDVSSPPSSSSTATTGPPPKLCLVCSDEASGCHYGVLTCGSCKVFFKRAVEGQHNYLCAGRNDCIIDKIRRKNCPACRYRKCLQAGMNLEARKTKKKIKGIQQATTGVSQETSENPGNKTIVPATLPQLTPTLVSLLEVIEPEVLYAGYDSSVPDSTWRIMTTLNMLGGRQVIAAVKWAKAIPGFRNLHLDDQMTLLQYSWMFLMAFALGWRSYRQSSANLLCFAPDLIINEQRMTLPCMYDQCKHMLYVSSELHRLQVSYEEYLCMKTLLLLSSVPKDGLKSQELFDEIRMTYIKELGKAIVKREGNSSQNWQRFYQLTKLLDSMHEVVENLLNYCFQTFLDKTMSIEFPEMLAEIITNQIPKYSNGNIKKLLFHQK
Put plainly: GR Fluorescence Polarization Assay (PolarScreen Glucocorticoid Receptor Competitor Assay, Red). The note with it: fluorescence polarization binding ranges. Summed up:
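Compound displacement of a red-labelled glucocorticoid from GR, read as fluorescence polarization. Tracer, receptor and 1:4-serially diluted compound were left together overnight at 4° C in the kit assay buffer.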
(In general: In fluorescence polarisation assays a small probe gives low polarisation when free and higher when bound to something large.)

Assay [2] concerns IL-6. Put plainly: A549 Cell Assay to Measure Inflammation Markers (inhibition of IL-1β-induced IL-6). In kind it is cell-based. Summed up:
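A549 cells pre-incubated 1 h with compound (10-point dilution, 0.1% DMSO final) in charcoal-stripped serum medium, then stimulated 4 h with 1 ng/mL IL-1β at 37° C. Supernatant IL-6 measured by MSD immunoassay; IC50 and Emax relative to 1 μM prednisolone as 100% inhibition; viability checked by CellTiter-Glo.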

In assay [3] the test system is OCN. Nature of the assay: MG-63 Cell Assay to Measure Bone Markers (inhibition of Vitamin K/Vitamin D-induced OCN). The note with it: Homo sapiens, MG63 cells. In kind it is cell-based. The method, then:
MG-63 Cell Assay to Measure Bone Markers
MG-63 cells were cultured in culture media containing ascorbic acid (DMEM/F12 supplemented with 10% FBS, 1% HEPES, 100 U/mL-100 μg/mL Pen-Strep, and 100 μg/mL of ascorbic acid) for, minimally, 1 week before study. MG-63 cells were seeded (4E4 cells/well) in 96-well assay plates in culture medium (200 μL/well.) After overnight culture in an incubator set to 37° C., 4.9% CO2, and 90% humidity, media was removed from adherent cells by aspiration and replaced with 100 μL/well assay medium, DMEM/F12 supplemented with 5% Charcoal Stripped Serum, 1% HEPES, 100 U/mL-100 μg/mL Pen-Strep, and 100 μg/mL of ascorbic acid. Compounds were prepared with DMSO and serial diluted (1:3, 1:4, or 1:5) with DMSO in dilution plate(s) to give 10 dilution points for each compound tested. Further dilution (1:250) of compound was made into assay medium and 50 μL/well diluted drug or DMSO/media control was applied to cells. After a 1 h pre-incubation in a temperature, CO2, and humidity controlled incubator, set to 37° C., 50 μL/well of 40 nM Vitamin K and 400 nM Vitamin D that were diluted in assay media were applied to plates. Assay plates, with a final volume of 200 μL/well and final concentrations of 0.1% DMSO, 10 nM Vitamin K, and 100 nM Vitamin D, were returned to incubator for overnight culture. Next, plates were spun at 183 g (1000 rpm in Beckman/Coulter Allegra 6KR centrifuge) for 10 min. Cell-free supenatant (150 μL/well) was collected and OCN was measured by MSD kit, following protocol of manufacturer, and using MSD SECTOR Imager 6000 instrument. Potency of drug to inhibit OCN was determined using the percent reduction of measured OCN in wells with drug compared to control wells without drug, and relative to (100% inhibition) positive control sample of 10 μM prednisolone. Results were represented as IC50 and Emax values. To verify that viable cell numbers were similar across plate(s), and not confounding compound IC50 data interpretation, the remaining 50 μL/well of cells and media (after removal of supernatant) were used to run Cell Titer-Glo Assay per directions of manufacturer.

[4] abbreviates: Homo sapiens, A549 cells, read-out: A549 cell assay.
Setting [5] is: A549 cells, read-out: A549 cell assay.

Like-named read-outs stand apart in the source and are kept apart here.

Consider `CC[C@@]12CC[C@@](O)(C(F)(F)F)C[C@@H]1CCCc1cc3c(cnn3-c3ccc(F)cc3)cc12` (single isomer, unassigned) [Example 3], for which the IC50 is below 100 nM in assay [1], below 100 nM in assay [2] (setting [4]) and 100 to 1000 nM in assay [3].
In the case of `COC[C@@]1(O)CC[C@@]2(Cc3ccccn3)c3cc4cnn(-c5ccc(F)cc5)c4cc3CCC[C@H]2C1` (single isomer, unassigned) [Example 12], the IC50 in assay [1], in assay [2] (setting [4]) and in assay [3] was below 100 nM each time.
As to `CC[C@@]12CC[C@@](O)(C(F)(F)F)C[C@@H]1CCCc1cc3c(cnn3-c3ccc(F)cc3)cc12` (racemic) [Example 1, (3S,4aS,12bR)-12b-Ethyl-9-(4-fluoro-phenyl)-3-trifluoromethyl-1,2,3,4,4a, 5,6,7,9,12b-decahydro-9,10-diaza-benzo[3,4]cyclohepta[1,2-f]inden-3-ol; compound with (3R,4aR,12bS)-12b-ethyl-9-(4-fluoro-phenyl)-3-trifluoromethyl-1,2,3,4,4a,5,6,7,9,12b-decahydro-9,10-diaza-benzo[3,4]cyclohepta[1,2-f]inden-3-ol], the IC50 in assay [1], in assay [2] (setting [4]) and in assay [3] was below 100 nM throughout.
For the molecule `CC[C@@]12CC[C@](O)(COC)C[C@@H]1CCCc1cc3[nH]ncc3cc12` (racemic) [Example 14, (3R,4aS,12bR)-12b-Ethyl-3-methoxymethyl-1,2,3,4,4a,5,6,7,9,12b-decahydro-9,10-diaza-benzo[3,4]cyclohepta[1,2-f]inden-3-ol; compound with (3S,4aR,12bS)-12b-ethyl-3-methoxymethyl-1,2,3,4,4a,5,6,7,9,12b-decahydro-9,10-diaza-benzo[3,4]cyclohepta[1,2-f]inden-3-ol], the IC50 in assay [1] is below 100 nM; in assay [2] (setting [4]), above 10000 nM; in assay [3], above 10000 nM.
Consider `CCC[C@]1(O)CC[C@@]2(CC)c3cc4cnn(-c5ccc(F)cc5)c4cc3CCC[C@@H]2C1` (racemic) [Example 4, (3S,4aR,12bR)-12b-Ethyl-9-(4-fluoro-phenyl)-3-propyl-1,2,3,4,4a,5,6,7,9,12b-decahydro-9,10-diaza-benzo[3,4]cyclohepta[1,2-f]inden-3-ol; compound with (3R,4aS,12bS)-12b-ethyl-9-(4-fluoro-phenyl)-3-propyl-1,2,3,4,4a,5,6,7,9,12b-decahydro-9,10-diaza-benzo[3,4]cyclohepta[1,2-f]inden-3-ol], for which the IC50 was below 100 nM in assay [1], 100 to 1000 nM in assay [2] (setting [4]) and below 100 nM in assay [3].
Take `COC[C@@]1(O)CC[C@@]2(Cc3ccccn3)c3cc4cnn(-c5ccc(F)cc5)c4cc3CCC[C@H]2C1` (racemic) [Example 11]: the IC50 in assay [1], in assay [2] (setting [4]) and in assay [3] was below 100 nM each time.
As to `CC[C@@]12CC[C@@](O)(COC)C[C@H]1CCCc1cc3c(cnn3-c3ccc(F)cc3)cc12` (single isomer, unassigned) [Example 7], the values for the IC50 in assay [1], in assay [2] (setting [4]) and in assay [3] were below 100 nM, below 100 nM and above 10000 nM, respectively.
As to `COC[C@]1(O)CC[C@]2(Cc3ccccn3)c3cc4cnn(-c5ccc(F)cc5)c4cc3CCC[C@@H]2C1` (single isomer, unassigned) [Example 13], the IC50 in assay [1], in assay [2] (setting [4]) and in assay [3] was below 100 nM throughout.
As for `CCOC[C@]1(O)CC[C@@]2(CC)c3cc4cnn(-c5ccc(F)cc5)c4cc3CCC[C@@H]2C1` (single isomer, unassigned) [Example 9], the figures for the IC50 in assay [1], in assay [2] (setting [4]) and in assay [3] were below 100 nM, 100 to 1000 nM and above 10000 nM, respectively.
With `CC[C@]12CC[C@@](O)(COC)C[C@H]1CCCc1cc3c(cnn3-c3ccccn3)cc12` [Example 46], the values for the IC50 in assay [1] and in assay [2] (setting [5]) were 100 to 1000 nM and above 10000 nM, respectively.
Turning to `CC[C@@]12CC[C@](O)(C(F)(F)F)C[C@H]1CCCc1c2cc2cnn(-c3ccc(F)cc3)c2c1C` [Example 103, (3R,4aR,12bR)-12b-Ethyl-9-(4-fluorophenyl)-8-methyl-3-(trifluoromethyl)-1,2,3,4,4a,5,6,7,9,12b-decahydrobenzo[6,7]cyclohepta[1,2-f]indazol-3-ol], the IC50 in assay [1] and in assay [2] (setting [4]) was below 100 nM in each case.
For the molecule `C[C@]1(O)CC[C@]2(CC3CC3)c3cc4cnn(-c5ccc(F)cc5)c4cc3CCC[C@@H]2C1` [Example 58], the IC50 in assay [1] and in assay [2] (setting [5]) was below 100 nM each time.
Regarding `OC[C@]12CC[C@@](O)(C(F)(F)F)C[C@@H]1CCCc1cc3c(cnn3-c3ccc(F)cc3)cc12` [Example 79], the IC50 in assay [1] was below 100 nM; in assay [2] (setting [5]), 100 to 1000 nM.
Take `COC[C@@]1(O)CC[C@@]2(Cc3ccccn3)c3cn4cnc(-c5ccc(F)cc5)c4cc3CCC[C@H]2C1` (racemic) [Example 167, rac-(3R,4aS,13bS)-9-(4-Fluorophenyl)-3-(methoxymethyl)-13b-(pyridin-2-ylmethyl)-2,3,4,4a,5,6,7,13b-octahydro-1H-benzo[3,4]cyclohepta[1,2-d]imidazo[1,5-a]pyridin-3-ol]: the IC50 in assay [1] and in assay [2] (setting [4]) was below 100 nM each time.
Consider `CC[C@@]12CC[C@](O)(COC)C[C@@H]1CCOc1cc3c(cnn3-c3ccncc3)cc12` (racemic) [Example 132], for which the IC50 in assay [1] and in assay [2] (setting [4]) was below 100 nM throughout.
On to `N#C[C@]12CC[C@@](O)(C(F)(F)F)C[C@@H]1CCCc1cc3c(cnn3-c3ccc(F)cc3)cc12` (single isomer, unassigned) [Example 73], for which the IC50 in assay [1] was 100 to 1000 nM; in assay [2] (Homo sapiens, A549, read-out: A549 cell assay), above 10000 nM.
Regarding `COC[C@]1(O)CC[C@]2(Cc3ccccn3)c3cc4cnn(-c5ccncc5)c4cc3CCC[C@@H]2C1` [Example 48], the IC50 in assay [1] is 100 to 1000 nM; in assay [2] (setting [5]), below 100 nM.
Consider `CC(=O)NC[C@]12CC[C@@](O)(C(F)(F)F)C[C@@H]1CCCc1cc3c(cnn3-c3ccc(F)cc3)cc12` (single isomer, unassigned) [Example 83], for which the IC50 in assay [1] and in assay [2] (setting [4]) was 100 to 1000 nM each time.
`CC[C@@]12CC[C@](O)(C(F)(F)F)C=C1CCCc1cc3c(cnn3-c3ccc(F)cc3)cc12` (single isomer, unassigned) [Example 106]: the IC50 in assay [1] and in assay [2] (setting [4]) was below 100 nM each time.
For the molecule `N#CC[C@]12CC[C@@](O)(C(F)(F)F)C[C@@H]1CCCc1cc3c(cnn3-c3ccc(F)cc3)cc12` (single isomer, unassigned) [Example 82], the results for the IC50 in assay [1] and in assay [2] (setting [4]) were below 100 nM and 100 to 1000 nM, respectively.
Taken in the same sequence, the figures for `CC[C@]12CC[C@](O)(COC)C[C@@H]1CCCc1cc3c(cnn3-c3ccc(F)cc3)cc12` (single isomer, unassigned) [Example 8] were 100 to 1000 nM and above 10000 nM.
Regarding `CC[C@@]12CC[C@](O)(COC)C[C@H]1CCCc1cc3c(cnn3-c3ccc(F)cc3)cc12` [Example 37], the IC50 in assay [1] and in assay [2] (setting [5]) was below 100 nM throughout.
